According to patent EP2468718A1, “Cabanillasin, a new antifungal compound, produced by entomopathogenic xenorhabdus cabanillasii” (Nosopharm, priority 2010, dated 2012):
In brackets after ≈: the same amount, converted by molar mass. Several values for one entry are separate records, joined by “and”; a condition that tells them apart may be missing. Identical values can stand only once. Like-named read-outs stand apart in the source and are kept apart here.

Assays:
[1] = test system: PC-3 (Human prostatic carcinoma); assay: Cytotoxicity test (MTT); type: cell-based; settings: 48 h exposure, triplicate
Protocol: (§1) One hundred microliters of the cell suspension of PC-3 (Human prostatic carcinoma) or hTERT HME-1 (Human normal mammary epithelium) prepared in RPMI + 10% SVF + 1% glutamine were inoculated into 96-well plates. The inoculating cell number was 3500 cells per well for PC-3 and 7500 cells per well for hTERT HME-1. The microplates were incubated at 37°C for 24h with 5% of CO2. After 24 h of culture, the medium was removed by aspiration and 100 µl of RPMI + 10% SVF + 1% glutamine with 8 concentrations of Cabanillasin (from 0.78 µg/mL to 100 µg/mL) were added to each well. Microplates were incubated at 37°C for 48 h with 5% of CO2. After 48h of culture, the medium was removed by aspiration and 100 µL of RPMI + MTT (0.5 mg/mL) were added to each wells. Microplates were inoculated at 37°C during 150 min. Next, all the medium was removed by inverting and tapping the plate and 100 µL of DMSO were added in each plate. The spectrophotometric absorbance was then measured at 550 nm. The Lethal Dose 50 correspond to DL50 = ((50-(Y2-((Y1-Y2)/(X1-X2))*X2))/ ((Y1-Y2)/(X1-X2))). […] Experiments were done in triplicate.

[2] = test system: hTERT HME-1 (Human normal mammary epithelium); assay: Cytotoxicity test (MTT); type: cell-based; settings: 48 h exposure, triplicate
Protocol: as §1

[3] = test system: Fusarium oxysporum clinical strain; assay: Antifungal susceptibility testing, M38-A microdilution method (filamentous fungi); type: cell-based; settings: for inhibition at 0.09 µg/mL / inhibition at 0.19 µg/mL / inhibition at 0.39 µg/mL / inhibition at 0.78 µg/mL / inhibition at 1.56 µg/mL / inhibition at 3.12 µg/mL / inhibition at 6.25 µg/mL / inhibition at 12.5 µg/mL / inhibition at 25 µg/mL / inhibition at 50 µg/mL: read-out: % of growth inhibition
Protocol: (§2) Cabanillasin activity was tested against different fungal human pathogens: ascomycetes yeasts (Candida albicans ATCC 90029, Candida Glabrata ATCC 90030, Candida krusei ATCC 6258 and Candida lusitaniae CBS 6936), basidiomycetes yeasts (Cryptococcus neoformans clinical strain), ascomycetes filamentous fungi (Aspergilus fumigatus clinical strain, Fusarium oxysporum clinical strain) and zygomycetes filamentous fungi (Rhizopus oryzae environemental strain) by the M38-A microdilution method with RPMI 1640 medium (RPMI 1640, MOPS 160 mM, glucose 18 g/L, pH 7) as recommended in the […]. The NCCLS M27-A2 broth microdilution method (NCCLS) was used when yeasts were tested.
(§3) Yeasts and filamentous inoculi were prepared on YPD medium (yeast extract 10 g/L, peptone 10 g/L and glucose 20 g/L) and Malt medium (malt extract 20 g/L) respectively. The densities of inoculi were adjusted by dilution in RPMI 1640 broth to a value ranged from 5.10^2 to 5.10^3 CFU/mL for yeasts isolates and 5.10^3 to 5.10^4 CFU/mL for filamentous fungi. Microdilution trays (96 U-bottom shaped) containing 190 µL fungal inoculum were added with 10 µL Cabanillasin solution (final concentration ranging from 50 to 0.098 mg/L for all fungi). After inoculation of the trays, all microdilution trays were incubated at 35°C in ambient air. The culture absorbance was measured at 600 nm, 24 h and 48 h after the beginning of the experiments for the yeasts and 48 h and 72 h after the beginning of the experiments for filamentous fungi and Cryptococcus neoformans. The activity results correspond to a percentage of growth inhibition ((1-Abs600 nm culture with Cabanillasin)/ Abs600 nm culture without Cabanillasin) x 100.
(§4) The IC50 value is the concentration at which inhibition of growth is equal to 50%. MICs for Candida species were determined at 24 h and 48 h and corresponded to 100% of growth inhibition. Amphotericin B was provided as standard (final concentration ranging from 16 to 0.03 mg/L for all fungi). Experiments were done in duplicate.

[4] = test system: Rhizopus oryzae environemental strain; assay: as above; type: cell-based; settings: for inhibition at 0.09 µg/mL / inhibition at 0.19 µg/mL / inhibition at 0.39 µg/mL / inhibition at 0.78 µg/mL / inhibition at 1.56 µg/mL / inhibition at 3.12 µg/mL / inhibition at 6.25 µg/mL / inhibition at 12.5 µg/mL / inhibition at 25 µg/mL / inhibition at 50 µg/mL: Rhizopus arrhizus, read-out: % of growth inhibition
Protocol: as §2, §3, §4

[5] = test system: Aspergilus fumigatus clinical strain; assay: as above; type: cell-based, Aspergillus fumigatus; settings: for inhibition at 0.09 µg/mL / inhibition at 0.19 µg/mL / inhibition at 0.39 µg/mL / inhibition at 0.78 µg/mL / inhibition at 1.56 µg/mL / inhibition at 3.12 µg/mL / inhibition at 6.25 µg/mL / inhibition at 12.5 µg/mL / inhibition at 25 µg/mL / inhibition at 50 µg/mL: Aspergillus fumigatus, read-out: % of growth inhibition
Protocol: as §2, §3, §4

CC(=O)NC(=N)NCCCCNC(=N)NCCCCNC(=N)NCCCCNC(=N)NCCCCN [Cabanillasin]
LD 50 [1]: 46.83 ± 1.55 µg/mL and 46.83 µg/mL | LD 50 [2]: 24.46 ± 2.51 µg/mL and 24.46 µg/mL | inhibition at 0.09 µg/mL ([3]; 48 h incubation): 0% | inhibition at 0.09 µg/mL ([3]; 72 h incubation): 0% | inhibition at 0.19 µg/mL ([3]; 48 h incubation): 0% | inhibition at 0.19 µg/mL ([3]; 72 h incubation): 0% | inhibition at 0.39 µg/mL ([3]; 48 h incubation): 0% | inhibition at 0.39 µg/mL ([3]; 72 h incubation): 0% | inhibition at 0.78 µg/mL ([3]; 48 h incubation): 0% | inhibition at 0.78 µg/mL ([3]; 72 h incubation): 0% | inhibition at 1.56 µg/mL ([3]; 48 h incubation): 0% | inhibition at 1.56 µg/mL ([3]; 72 h incubation): 0% | inhibition at 3.12 µg/mL ([3]; 48 h incubation): 32.1% | inhibition at 3.12 µg/mL ([3]; 72 h incubation): 0% | inhibition at 6.25 µg/mL ([3]; 48 h incubation): 68.6% | inhibition at 6.25 µg/mL ([3]; 72 h incubation): 48.6% | inhibition at 12.5 µg/mL ([3]; 48 h incubation): 71.6% | inhibition at 12.5 µg/mL ([3]; 72 h incubation): 56.4% | inhibition at 25 µg/mL ([3]; 48 h incubation): 66.6% | inhibition at 25 µg/mL ([3]; 72 h incubation): 72.5% | inhibition at 50 µg/mL ([3]; 48 h incubation): 80.2% | inhibition at 50 µg/mL ([3]; 72 h incubation): 79.8% | IC50 ([3]; incubation time not stated): 6.25 µg/mL (≈ 12.2 µM) | inhibition at 0.09 µg/mL ([4]; 48 h incubation): 0% | inhibition at 0.09 µg/mL ([4]; 72 h incubation): 0% | inhibition at 0.19 µg/mL ([4]; 48 h incubation): 0% | inhibition at 0.19 µg/mL ([4]; 72 h incubation): 0% | inhibition at 0.39 µg/mL ([4]; 48 h incubation): 0% | inhibition at 0.39 µg/mL ([4]; 72 h incubation): 0% | inhibition at 0.78 µg/mL ([4]; 48 h incubation): 0% | inhibition at 0.78 µg/mL ([4]; 72 h incubation): 0% | inhibition at 1.56 µg/mL ([4]; 48 h incubation): 0% | inhibition at 1.56 µg/mL ([4]; 72 h incubation): 0% | inhibition at 3.12 µg/mL ([4]; 48 h incubation): 0% | inhibition at 3.12 µg/mL ([4]; 72 h incubation): 0% | inhibition at 6.25 µg/mL ([4]; 48 h incubation): 0% | inhibition at 6.25 µg/mL ([4]; 72 h incubation): 0% | inhibition at 12.5 µg/mL ([4]; 48 h incubation): 0% | inhibition at 12.5 µg/mL ([4]; 72 h incubation): 0% | inhibition at 25 µg/mL ([4]; 48 h incubation): 0% | inhibition at 25 µg/mL ([4]; 72 h incubation): 0% | inhibition at 50 µg/mL ([4]; 48 h incubation): 40.7% | inhibition at 50 µg/mL ([4]; 72 h incubation): 0% | activity ([4]; at 48h): weak activity | activity ([4]; at 72 h): no activity | inhibition at 0.09 µg/mL ([5]; 48 h incubation): 0% | inhibition at 0.09 µg/mL ([5]; 72 h incubation): 0% | inhibition at 0.19 µg/mL ([5]; 48 h incubation): 0% | inhibition at 0.19 µg/mL ([5]; 72 h incubation): 0% | inhibition at 0.39 µg/mL ([5]; 48 h incubation): 0% | inhibition at 0.39 µg/mL ([5]; 72 h incubation): 0% | inhibition at 0.78 µg/mL ([5]; 48 h incubation): 0% | inhibition at 0.78 µg/mL ([5]; 72 h incubation): 0% | inhibition at 1.56 µg/mL ([5]; 48 h incubation): 0% | inhibition at 1.56 µg/mL ([5]; 72 h incubation): 0% | inhibition at 3.12 µg/mL ([5]; 48 h incubation): 0% | inhibition at 3.12 µg/mL ([5]; 72 h incubation): 0% | inhibition at 6.25 µg/mL ([5]; 48 h incubation): 0% | inhibition at 6.25 µg/mL ([5]; 72 h incubation): 0% | inhibition at 12.5 µg/mL ([5]; 48 h incubation): 0% | inhibition at 12.5 µg/mL ([5]; 72 h incubation): 0% | inhibition at 25 µg/mL ([5]; 48 h incubation): 0% | inhibition at 25 µg/mL ([5]; 72 h incubation): 0% | inhibition at 50 µg/mL ([5]; 48 h incubation): 65.2% | inhibition at 50 µg/mL ([5]; 72 h incubation): 0% | activity ([5]; at 48h): weak activity | activity ([5]; at 72 h): no activity
